Measurements as given in US8999293B2, “Animal model of anxiety and depression” (University of Mississippi, priority 2005, dated 2015).
Read-outs that look alike come from different tables or passages of the source.

Tests used:
[1] = tested on: isolated cockerels (Gallus gallus; W36); assay: Chick anxiety-depression model, drug probe studies, 120 min isolation (Example 3); details: for ED50: Gallus gallus; for isolation-induced DVoc rate during the anxiety-like phase (first five min time block) / isolation-induced DVoc rate during the depression-like phase (30-120 min) / sleep onset latency (SOL) to index sedation: IM fifteen minutes prior to testing; for isolation-induced DVoc rate during the anxiety-like phase (first five min time block) / isolation-induced DVoc rate during the depression-like phase (30-120 min): vs vehicle/isolated; for isolation-induced DVoc rate during the anxiety-like phase (first five min time block): attenuation = anxiolytic effect; for isolation-induced DVoc rate during the depression-like phase (30-120 min): increase = antidepressant effect; for sleep onset latency (SOL) to index sedation: vs vehicle/isolated chicks
Description: Subjects and Housing Procedures. Cockerels (Gallus gallus; W36; Cal-Maine Foods, Inc.; Mendenhall, Miss.) were received one-day posthatch and housed in 34×57×40 cm stainless steel cages with 12-13 chicks per cage. Food (Purina Start and Grow, St. Louis, Mo.) and water were available ad libitum through one quart gravity-fed feeders (Murray MacMurray; Model 4BGFJ) and waterers (Murray MacMurray; Model 4YQW0). Room temperature was maintained at 29±1° C. and overhead illumination was maintained on a 12 hr light-dark cycle. Daily maintenance, which was conducted during the first three hr of the light cycle, involved refilling the waterer, refilling the feeder, and replacement of tray liners.
Apparatus. The testing apparatus consisted of a six-unit test apparatus containing Plexiglas viewing chambers (25×25×22 cm) placed in sound-attenuating enclosures. Each unit was illuminated and heated by a 25-W light bulb. Ventilation was provided by an eight centimeter diameter rotary fan (Commonwealth Model FP-108AX 51). Miniature video cameras (SuperCircuit Model PC60XP) mounted in the sound-attenuating enclosures at floor level and routed through a Multiplexor (SuperCircuit Model PC47MC) provided televised display of the chicks for behavioral observation. Distress vocalizations (DVocs) were recorded by microphones (Lafayette Instruments Model 3-675-001) mounted in the ceilings of the Plexiglas chambers and connected to digital sound-activating relays (Lafayette Instruments Model 63040A; settings: 75% sensitivity and 0.10 s delay) that triggered electromechanical counters (Lafayette Instruments Model 58004).
Drug Probes. All experiments were conducted between five- and seven days posthatch. The groups in each experiment formed a 1×5 factorial design with a hanging control condition (n=9-12). The two vehicle control groups constituted the social separation stress manipulation. This manipulation involved placing a chick in the Plexiglas test chamber either in isolation or with two social companions for a 120 min test observation period. All drug probes were tested in the isolation condition.
Vehicle or a drug was administered IM fifteen minutes prior to testing. Dependent measures that were collected during the test session were DVocs to index separation stress and sleep onset latency (SOL) to index sedation. DVocs were defined as the vocalizations that are picked up by the electromechanical counters. SOL was defined as the time in which a chick adopts a sleep-like posture with either its chest in full contact with the floor and its eyes closed or its legs in a wide posture, its head drooping, and its eyes closed. Following each six-chick test session, the animals were returned to their home cage. After all animals were tested, they were euthanized via CO^2 asphyxiation.
Statistical Analyses. In order to discretely analyze the drug effects in the anxiety-like state and the depression-like state, the raw DVoc data were converted to a rate per min score. The anxiety-like state DVoc rate consisted of the mean DVocs per min over the first five min of the test session. The depression-like state DVoc rate consisted of the mean DVocs per min from 30 min to 120 min. Following this conversion, the DVoc rates from the anxiety-like phase and depression-like phase were analyzed with a one-way ANOVA with Fisher's LSD post hoc analysis. Plasma IL-6 concentration data were analyzed using one-way ANOVA with Fisher's LSD post hoc analysis and independent sample t-tests.

[2] = tested on: isolated cockerels (Gallus gallus, strain W-36); assay type: in vivo; details: isolated chicks vs vehicle-isolated, chlordiazepoxide 8 mg/kg
Text: Subjects. Cockerels (Gallus gallus, strain W-36; Cal-Maine Foods, Mendenhall, Miss., USA) were obtained 1 day posthatch and housed in stainless steel cages (34×57×40 cm) at a population density of 12 chicks per cage. Food (Purina Start and Grow, St. Louis, Mo., USA) and water were available ad libitum through a 1-quart gravity-fed feeders and waterers.
Apparatus. […] The units were illuminated using 25-W light bulbs and ventilated by an 8-cmdiameter rotary fan. Miniature video cameras mounted at floor level in the corner of the enclosures allowed for animal observation. Microphones that mounted at the ceiling of the Plexiglas chamber were connected to digital sound-activating relays, which activated electromechanical counters. A white noise generator provided room masking noise.
Procedure. Tests were conducted at either Day 4, 5, or 6 posthatch. Groups formed a single factorial design with a hanging control that included two vehicle-control groups in which chicks were tested in either an isolated or social condition, and two drug groups under the isolation condition. The vehicle was 0.9% physiological saline and the drug probes were chlordiazepoxide (8 mg/kg) and imipramine (15 mg/kg). Sample sizes were n=12 per cell. […]
Statistics. Data were analyzed using one- and two-way repeated measures analysis of variance (ANOVA) and one-way simple effects ANOVA. […]

domestic fowl chicks = details: cited from earlier work; for detection of anxiolytic activity on separation-induced distress vocalizations: Feltenstein et al. 2004; for detection in the chick separation stress paradigm: Warnick et al. 2006, panic disorder vs generalized anxiety disorder drugs
[3] = tested on: Black Australorp chicks (stress-vulnerable); assay: Chick anxiety-depression model, 90 min isolation, Black Australorp strain (Example 5); details: data not shown
[4] = read-out: ED50 AD Effect (40-60 min time block)
[5] = read-out: ED50 AD Effect (60-80 min time block)
[6] = read-out: ED50 AD Effect (80-100 min time block)
[7] = read-out: ED50 AD Effect (100-120 min time block)

CNCCC(Oc1ccc(C(F)(F)F)cc1)c1ccccc1 (centres unmarked) [Fluoxetine, fluoxetine]
ED50 [1, 4]: 16.5 mg/kg
ED50 [1, 5]: 13.3 mg/kg
ED50 [1, 6]: 14 mg/kg
ED50 [1, 7]: 14 mg/kg
isolation-induced DVoc rate during the anxiety-like phase (first five min time block) [1]: none of the doses of fluoxetine attenuated DVocs
isolation-induced DVoc rate during the depression-like phase (30-120 min) [1]: significant exacerbation of the DVoc rate in the 1 mg/kg, 10 mg/kg and 20 mg/kg doses

CN(C)CCCN1c2ccccc2CCc2ccccc21 [Imipramine, imipramine]
ED50 [1, 4]: 10 mg/kg
ED50 [1, 5]: 8.5 mg/kg
ED50 [1, 6]: 9.1 mg/kg
ED50 [1, 7]: 7.6 mg/kg
isolation-induced DVoc rate during the anxiety-like phase (first five min time block) [1]: significant attenuation of the separation-induced DVoc rate at the 10 mg/kg and 15 mg/kg doses
isolation-induced DVoc rate during the depression-like phase (30-120 min) [1]: significant exacerbation of the DVoc rate in the 1 mg/kg, 3 mg/kg and 15 mg/kg doses (p^s<0.005) and a marginally significant exacerbation in the 10 mg/kg dose condition
distress vocalizations (DVocs) at the first five minute time block ([2]; IP 15 minute before tests, imipramine 15 mg/kg): attenuated DVocs
DVoc rates at the 20 minute block and beyond ([2]; imipramine 15 mg/kg IP): enhanced DVoc rates
detection of anxiolytic activity on separation-induced distress vocalizations (domestic fowl chicks): successful detection
detection in the chick separation stress paradigm (domestic fowl chicks): selectively detected

CNC1(c2ccccc2Cl)CCCCC1=O (centres unmarked) [Ketamine, ketamine]
antidepressant activity, follow-up study with ketamine at lower doses ([3]; Black Australorps): failed to see antidepressant activity in either strain
ataxia ([3]; highest dose tested, strain not specified): transient (5-10 min) ataxia

CNCCCC12CCC(c3ccccc31)c1ccccc12 [Maprotiline, maprotiline]
ED50 ([1]; read-out: ED50 AD Effect (20-40 min time block)): 17.2 mg/kg
ED50 [1, 4]: 14 mg/kg
ED50 [1, 5]: 14.9 mg/kg
ED50 [1, 6]: 13.6 mg/kg
ED50 [1, 7]: 14.6 mg/kg
isolation-induced DVoc rate during the anxiety-like phase (first five min time block) [1]: significant attenuation of the separation-induced DVoc rate at the 20 mg/kg dose
isolation-induced DVoc rate during the depression-like phase (30-120 min) [1]: the three lowest doses (2.5 mg/kg, 5 mg/kg, and 10 mg/kg) exacerbated DVocs

Cc1nnc2n1-c1ccc(Cl)cc1C(c1ccccc1)=NC2 [alprazolam]
detection in the chick separation stress paradigm (domestic fowl chicks): selectively detected

CC(N)Cc1ccccc1 (centres unmarked) [amphetamine]
detection of anxiolytic activity on separation-induced distress vocalizations (domestic fowl chicks): insensitive

O=C1CC2(CCCC2)CC(=O)N1CCCCN1CCN(c2ncccn2)CC1 [buspirone]
detection in the chick separation stress paradigm (domestic fowl chicks): insensitive

CNC1=Nc2ccc(Cl)cc2C(c2ccccc2)=[N+]([O-])C1 [chlordiazepoxide]
sleep onset latency (SOL) to index sedation [1]: significant SOL reduction in the 10 mg/kg dose

CN(C)CCCN1c2ccccc2Sc2ccc(Cl)cc21 [chlorpromazine]
detection of anxiolytic activity on separation-induced distress vocalizations (domestic fowl chicks): insensitive

Clc1cccc(Cl)c1N=C1NCCN1 [clonidine]
sleep onset latency (SOL) to index sedation [1]: significant SOL reduction in the 0.15 mg/kg and 0.20 mg/kg doses (p^s<0.05) and a marginally significant reduction in the 0.25 mg/kg dose
isolation-induced DVoc rate during the anxiety-like phase (first five min time block) [1]: significant attenuation of the separation-induced DVoc rate at all doses
isolation-induced DVoc rate during the depression-like phase (30-120 min) [1]: did not reveal a significant effect
detection of anxiolytic activity on separation-induced distress vocalizations (domestic fowl chicks): successful detection
detection in the chick separation stress paradigm (domestic fowl chicks): selectively detected

O=C(CCCN1CCC(O)(c2ccc(Cl)cc2)CC1)c1ccc(F)cc1 [haloperidol]
detection of anxiolytic activity on separation-induced distress vocalizations (domestic fowl chicks): insensitive

CCCC(C)(COC(N)=O)COC(N)=O [meprobamate]
detection of anxiolytic activity on separation-induced distress vocalizations (domestic fowl chicks): successful detection

CCCC(C)C1(CC)C(=O)NC(=O)NC1=O (centres unmarked) [pentobarbital]
detection of anxiolytic activity on separation-induced distress vocalizations (domestic fowl chicks): successful detection

NNCCc1ccccc1 [phenelzine]
detection in the chick separation stress paradigm (domestic fowl chicks): selectively detected

CN1[C@@H]2C[C@@H](OC(=O)[C@H](CO)c3ccccc3)C[C@H]1[C@@H]1O[C@@H]12 [scopolamine]
detection of anxiolytic activity on separation-induced distress vocalizations (domestic fowl chicks): insensitive

O=c1n(CCCN2CCN(c3cccc(Cl)c3)CC2)nc2ccccn12 [trazodone]
detection in the chick separation stress paradigm (domestic fowl chicks): insensitive
